The text below walks through data of US5332818A, “Immunosuppressive agent and process of producing the same” (Toray Industries, Inc., priority 1989, dated 1994).

For series [1] the following is noted: in words; cited from earlier work.
For series [2] the following is noted: in words; cited from earlier work. The source holds these as a separate data set.
Series [3] deals with T1, μ receptor (Cavia porcellus, UniProt A0ACM8Q262).
T1 construct: antagonism of morphine
The series is described as follows: Antagonism of morphine (μ) in electrically stimulated isolated organ. It counts as cell-based, Guinea pig. Particulars: for concentration dependency of antagonistic activity: μ receptor, FIGS. 1 and 2; for Slope / γ / pA2 (50% Confidence Limit): μ, in vitro; for pA2 (50% Confidence Limit): NLI value is mean ± S.E. The method, then:
(§1) The term "δ-opioid antagonist" herein used-means a group of compounds which suppress the inhibition by DADLE or DPDPE of contraction of MVD specimen caused by electric stimulation.
(§2) Ke=[antagonist]/(IC50 ratio -1)
(§3) The IC50 ratio used herein is the value obtained by dividing the IC50 of an agonist, which is measured in the presence of an antagonist, with the IC50 value of the […], that is measured in the absence of the antagonist. Ke value is a value which is introduced for compensating the concentration of antagonist when comparing the IC50 ratio. Thus, the smaller the Ke value, the stronger the antagonist activity.
(§4) The antagonistic activities of the naloxindole hydrochloride and the naltrindole methanesulfonic acid salt obtained in Examples 1 and 3 were determined by the following method:
(§5) Guinea pig ileum (containing μ and κ receptors) and mouse vas deferens were taken out and the organs were subjected to electric stimulations. The activities of the compounds for inhibiting the suppression of contraction of the organs by three agonists, that is, morphine (μ), EKC (κ) and DADLE (δ) were measured.

The target of series [4] is T2, κ receptor (Cavia porcellus, UniProt P41144).
T2 construct: from tissue; host or cells: guinea pig ileum, isolated, electrically stimulated
Nature of the series: Antagonism of EKC (κ) in electrically stimulated isolated organ. In kind it is cell-based, Guinea pig. Particulars: for concentration dependency of antagonistic activity: κ receptor, FIGS. 1 and 2; for Slope / γ / Kb: κ, in vitro; for Kb: NLI value is mean ± S.E., read-out: pA2 (50% Confidence Limit) (converted). The protocol:
as §1, §2, §3, §4, §5

Series [5] addresses T3, δ receptor (Mus musculus, UniProt P32300).
T3 construct: from tissue; host or cells: mouse vas deferens, isolated, electrically stimulated
The series is described as follows: Antagonism of DADLE (δ) in electrically stimulated isolated organ (vas deferens). In kind it is cell-based. Particulars: for κ/δ / μ/δ: Ke selectivity ratio; for κ/δ / μ/δ / selectivity to the δ receptors with respect to κ receptors / selectivity to the δ receptors with respect to μ receptors: Table 1; for concentration dependency of antagonistic activity: δ receptor, FIGS. 1 and 2; for Slope / γ / Kb: δ, in vitro; for Kb: read-out: pA2 (50% Confidence Limit) (converted). The method, then:
as §1, §2, §3, §4, §5

Series [6] has as its system mouse spleen cells. The series is described as follows: Suppression of mitogen (ConA) reaction. It counts as cell-based, C57BL/6 mouse. Particulars: 48 hours, 3 cases, read-out: Suppression Rate of Mitogen Reaction; for inhibition at 1 µg/mL: 1 μg/ml; for inhibition at 10 µg/mL: 10 μg/ml; for inhibition at 50 µg/mL: 50 μg/ml. The protocol:
If mouse spleen cells are cultured in vitro in the presence of concanavalin A (hereinafter referred to as "ConA" for short), the cells are divided and proliferated (mitogen reaction). In this system, the immunosuppressive agent of the present invention or cyclosporin A as a comparative example was added to the culture medium and the effects to the mitogen reaction were examined.
More particularly, C57BL/6 mouse was sacrificed and the spleen was removed. The spleen cells were suspended in RPMI 1640 culture medium containing 10% fetal calf serum (hereinafter referred to as "RPMI 1640" for short) so as to prepare a spleen cell suspension (5×10^6 cells/ml). In the wells of a flat-bottomed 96-well microplate, 100 μl of the suspension was placed and then 50 μl of RPMI 1640 containing ConA (4 μg/ml) as well as 50 μl of RPMI 1640 containing the test compound in the concentration shown in Table 2 were added. The cells were cultured for 48 hours (37° C. 5%CO2) As a control, 50 μl of RPMI 1640 was added. Eight hours before the termination of the culture, 2 μ Ci of [^3 H] thymidine was […], added. After termination of the culture, the cells were collected on a filter paper by using a cell harvester. After drying the filter paper, the filter paper was placed in a vial containing toluene-based scintillator and the radioactivity was measured by a liquid scintillation counter.
The suppression rate of mitogen reaction was calculated according to the following equation: [formula]

The test system of series [7] is spleen cells. The series is described as follows: Suppression of MLR reaction. It counts as cell-based, mouse (C57BL/6 and mitomycin-treated Balb/c). Particulars: for inhibition at 1 µg/mL / inhibition at 10 µg/mL / inhibition at 50 µg/mL: Mus musculus, 72 hours, 3 cases, NTI, NTB, NLI as hydrochloric acid salt, read-out: Suppression Rate of MLR Reaction; for inhibition at 1 µg/mL: 1 μg/ml; for inhibition at 10 µg/mL: 10 μg/ml; for inhibition at 50 µg/mL: 50 μg/ml; for MLR reaction: in words, hydrochloric acid salts. The protocol: If spleen cells from two different lines of mouse which are genetically different, the spleen cells recognize the other type of cells, and the cells are divided and proliferated (MLR reaction).
In this system, hydrochloric acid salt of NTI, NTB or NLI, or for comparison, cyclosporine A was added to the reaction medium and their effect to the MLR reaction was examined.
Balb/c mouse was sacrificed and the spleen was removed. The spleen cells were suspended in RPMI 1640 to prepare a spleen cell suspension (1×10^7 cells/ml). The spleen cells were then cultured in mitomycin C-containing RPMI 1640 for 30 minutes (37° C.) so as to carry out the mitomycin treatment. On the other hand, C57BL/6 mouse was sacrificed and spleen cell suspension (1×10^6 cells/ml) was prepared using RPMI 1640.
In the wells of a 96-well flat-bottomed microplate, 100 μl of C57BL/6 mouse spleen cell suspension, 50 μl of mitomycin-treated Balb/c mouse spleen cell suspension and 50 μl of RPMI 1640 containing the test compound were placed and the cells were cultured for 72 hours (37° C., 5%CO2). As a control, 50 μl of RPMI 1640 was added. Eight hours before the termination of the culture, 2 μCi of [^3 H] thymidine was added. After termination of the culture, the cells were collected on a filter paper by using a cell harvester. After drying the filter paper, the filter paper was placed in a vial containing toluene-based scintillator and the radioactivity was measured by a liquid scintillation counter.
The suppression rate of MLR reaction was calculated according to the following equation: [formula]

Series [8] concerns graft versus host reaction. The series is described as follows: Suppression of graft versus host reaction. In kind it is in vivo, mouse (BDF1; C57BL/6 spleen cells). Particulars: oral; for Suppression Rate of Graft versus Host Reaction: 100 mg/kg, once a day for 5 days, lymph node weight day 7, 4 cases, ** significance level < 0.02 (NTB), * < 0.05 (NTI); for graft versus host reaction: in words. The method, then: It is known that a graft versus host reaction occurs when spleen cells of a parent are transplanted to F1 mouse. In this system, NTI, NTB or cyclosporine A was administered to F1 mouse and the effects of these compounds on the graft versus host reaction were examined.
C57BL/6 mouse was sacrificed and the spleen was removed. Using phosphate buffered saline, a suspension of spleen cells (2×10^8 cells/ml) was prepared. To plantar of left hind leg of BDF1 mice, 50 μl of this spleen cell suspension was subcutaneously injected. From the day of this injection, each test compound was administered once a day for 5 days. The dose was 100 mg/kg and suspensions of the test compounds in 0.5% carboxymethyl cellulose (hereinafter referred to as "CMC") were orally administered. To the control group, 0.5% CMC alone was administered in the same manner. On the 7th day from the day of injection of the spleen cells, the mice were sacrificed and popliteal lymph nodes of right and left hind legs were removed and the weight of the lymph nodes was measured. The difference between the weight of the lymph nodes of the right and left hind legs was calculated and the difference was used as an index of the graft versus host reaction. The obtained results were analyzed by Student's t-test.
The suppression rate of graft versus host reaction was calculated according to the following equation: [formula]

Structures are written as SMILES.

T2 sequence (P41144 whole entry): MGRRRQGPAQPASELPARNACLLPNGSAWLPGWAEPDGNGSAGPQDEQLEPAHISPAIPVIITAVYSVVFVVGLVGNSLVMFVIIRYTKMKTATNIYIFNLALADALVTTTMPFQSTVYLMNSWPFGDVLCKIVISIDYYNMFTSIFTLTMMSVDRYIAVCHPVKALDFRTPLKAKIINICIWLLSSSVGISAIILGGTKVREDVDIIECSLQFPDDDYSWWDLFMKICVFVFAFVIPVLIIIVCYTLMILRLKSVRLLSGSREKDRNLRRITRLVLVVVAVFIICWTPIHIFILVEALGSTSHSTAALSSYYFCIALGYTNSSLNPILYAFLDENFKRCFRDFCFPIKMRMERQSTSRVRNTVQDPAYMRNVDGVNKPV
T3 sequence (P32300 whole entry): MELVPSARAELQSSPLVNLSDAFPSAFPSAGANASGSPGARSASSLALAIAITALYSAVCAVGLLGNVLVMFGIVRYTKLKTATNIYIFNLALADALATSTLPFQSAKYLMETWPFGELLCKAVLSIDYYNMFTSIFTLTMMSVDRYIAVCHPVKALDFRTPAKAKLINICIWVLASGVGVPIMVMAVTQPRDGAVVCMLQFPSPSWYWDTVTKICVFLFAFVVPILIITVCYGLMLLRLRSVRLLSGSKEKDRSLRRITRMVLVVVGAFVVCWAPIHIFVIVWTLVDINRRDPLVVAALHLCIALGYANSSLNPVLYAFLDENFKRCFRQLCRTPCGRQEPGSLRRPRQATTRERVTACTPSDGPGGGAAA
T1 sequence (A0ACM8Q262 1-400): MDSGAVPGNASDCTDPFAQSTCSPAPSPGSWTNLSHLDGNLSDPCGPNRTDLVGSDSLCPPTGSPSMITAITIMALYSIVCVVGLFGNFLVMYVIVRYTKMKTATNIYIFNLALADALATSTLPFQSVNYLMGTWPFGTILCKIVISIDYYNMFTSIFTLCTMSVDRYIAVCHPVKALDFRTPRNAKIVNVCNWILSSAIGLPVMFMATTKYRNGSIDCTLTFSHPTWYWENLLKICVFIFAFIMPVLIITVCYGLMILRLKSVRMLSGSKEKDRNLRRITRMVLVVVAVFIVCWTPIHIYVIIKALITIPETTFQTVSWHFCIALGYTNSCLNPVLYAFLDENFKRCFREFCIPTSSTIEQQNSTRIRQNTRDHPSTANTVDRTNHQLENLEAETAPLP

In the case of `C=CC[C@@H]1/C=C(\C)C[C@H](C)C[C@H](OC)[C@H]2O[C@@](O)(C(=O)C(=O)N3CCCC[C@H]3C(=O)O[C@H](/C(C)=C/[C@@H]3CC[C@@H](O)[C@H](OC)C3)[C@H](C)[C@@H](O)CC1=O)[C@H](C)C[C@@H]2OC` [FK-506], in series [1], the toxicity to kidney result was “stronger toxicity to kidney than cyclosporine A”. For the same compound, the toxicity to liver entry in series [2] was “strong toxicity to liver”.

`C=CCN1CC[C@]23c4c5ccc(O)c4O[C@H]2c2[nH]c4ccccc4c2C[C@@]3(O)[C@H]1C5` [NLI, naloxindole]: in series [3], the “concentration dependency of antagonistic activity” value (“concentration dependency” below) is given as “did not show dependency on the concentration”, the Slope is -0.063, the γ was -0.062 and the “pA2 (50% Confidence Limit)” value came to 6.86 ± 0.01. In series [4], the “concentration dependency” value is on record as “did not show dependency on the concentration”, the Slope was 0.105, the γ amounted to 0.149 and the Kb is 0.141 µM. In series [5], the κ/δ came out at 407, the μ/δ amounted to 251, the “selectivity to the δ receptors with respect to κ receptors” value is recorded as “about 400 times” and the “selectivity to the δ receptors with respect to μ receptors” value is listed as “about 250 times”. In series [5], the “concentration dependency” value was “concentration-dependent”, the Slope worked out at 1.066, the γ was found to be 0.936 and the Kb was 0.00055 µM. Moreover, the “affinity to δ receptors” value in series [5] (in words, NLI vs NTI) is “slightly inferior to NTI”. For the same compound, in series [6], the inhibition at 1 µg/mL amounted to 12%, the inhibition at 10 µg/mL worked out at 56% and the inhibition at 50 µg/mL turned out to be 100%. Moreover, in series [7], the inhibition at 1 µg/mL is 22%, the inhibition at 10 µg/mL worked out at 95%, the inhibition at 50 µg/mL is 100% and the MLR reaction result was “suppressed”.

As to `Oc1ccc2c3c1O[C@H]1c4oc5ccccc5c4C[C@@]4(O)[C@@H](C2)N(CC2CC2)CC[C@]314` [NTB, naltrbenzofuran], in series [6], the inhibition at 1 µg/mL turned out to be 14%, the inhibition at 10 µg/mL came out at 41% and the inhibition at 50 µg/mL was 100%. In series [7], the inhibition at 1 µg/mL was found to be 5%, the inhibition at 10 µg/mL was 81%, the inhibition at 50 µg/mL was 100% and the MLR reaction result was “suppressed”. Further, in series [8], the “Suppression Rate of Graft versus Host Reaction” value stood at 44% and the “graft versus host reaction” value was “suppressed”.

With `Oc1ccc2c3c1O[C@H]1c4[nH]c5ccccc5c4C[C@@]4(O)[C@@H](C2)N(CC2CC2)CC[C@]314` [NTI, naltrindole], in series [3], the “concentration dependency” value is reported as “increases proportionally with its concentration”, the Slope was determined as 1.330, the γ is listed as 0.791 and the “pA2 (50% Confidence Limit)” value was 7.42 (7.26-7.58). Besides, in series [4], the “concentration dependency” value is recorded as “increases proportionally with its concentration”, the Slope came out at 1.807, the γ is 0.941 and the Kb was 0.0437 µM. Besides, in series [5], the κ/δ turned out to be 104, the μ/δ is given as 91, the “selectivity to the δ receptors with respect to κ receptors” value is “about 100 times” and the “selectivity to the δ receptors with respect to μ receptors” value was “about 100 times”. In series [5], the “concentration dependency” value is on record as “increases proportionally with its concentration”, the Slope was 1.354, the γ came to 0.863 and the Kb was 0.000417 µM. In series [6], the inhibition at 1 µg/mL stood at 12%, the inhibition at 10 µg/mL was found to be 77% and the inhibition at 50 µg/mL amounted to 100%. Besides, in series [7], the inhibition at 1 µg/mL was 0%, the inhibition at 10 µg/mL is 100%, the inhibition at 50 µg/mL was found to be 100% and the MLR reaction entry is “suppressed”. Further, in series [8], the “Suppression Rate of Graft versus Host Reaction” value came out at 47% and the “graft versus host reaction” value is “suppressed”.
